One series in a line: in vitro. Particulars: PAMPA, pH 7.4. On the technique in general: PAMPA measures passive passage across an artificial lipid membrane.
The subject of another series is DU145 cells. Kind of series: Cytotoxicity in DU145 cells. The class given is cell-based, human.
Another series concerns HEK293T cells. Nature of the series: Toxicity by CellTiter-Glo. The class given is cell-based, human. Particulars: Conc. 62.5 μM. For orientation: In ATP-based viability assays light output follows the ATP content of the culture.
In series [1] the target is T1, SRC2-2 coactivator peptide SRC2-2 (Homo sapiens, UniProt Q15596).
T1 chain: KHKILHRLLQDSS

In general, Papp refers to the rate of passage across a membrane or cell layer, normalised by area and donor concentration. High values mean fast passage, low ones slow passage. As a reminder, the Kd is the concentration at which binding is half-saturated.

Turning to `Cc1[nH]c2ccccc2c1C(Nc1ccccc1)c1ccc(CCCO)cc1` (stereo not shown) [30i], the apparent permeability coefficient (Papp) in the series “in vitro” is 1.48 nm/s.
`Cc1[nH]c2ccccc2c1C(Nc1ccc(Cl)cc1)c1ccccc1Cl` (stereo not shown) [31b]: the “Concentration above which increased cytotoxicity was observed” value in the series on DU145 cells is recorded as “higher than 20 μM”.
`COC(=O)c1ccc2c(c1)C(C)(C)C(/C=C/c1ccc(OC)cc1)=[N+]2C` [compound 1] showed a Papp in “in vitro” of 0.138 nm/s.
Take `COc1ccc(/C=C/C2=[N+](C)c3ccc(OC)cc3C2(C)C)cc1` [compound 2]: the apparent permeability (Papp) in the series “in vitro” was 2.82 nm/s.
The same measure, in the same setting: the figure for `CCOc1ccc(/C=C/C2=[N+](C)c3ccc(C(=O)OC)cc3C2(C)C)cc1` [compound 3] is 0.0603 nm/s; for `COC(=O)c1ccc(/C=C/C2=[N+](C)c3ccc(OC)cc3C2(C)C)cc1` [compound 4] it is 0.117 nm/s.
Same read-out and setting: as for `COC(=O)c1ccc2c(c1)C(C)(C)C(/C=C/c1ccc(O)cc1)=[N+]2C` [compound 5], the figure is 0.2 nm/s.
Still for that read-out and setting: the figure for `CCCS(=O)(=O)c1oc(-c2cccs2)nc1S(=O)(=O)c1ccc(F)cc1` [compound 7] is 2.51 nm/s; for `CCS(=O)(=O)c1oc(-c2cccs2)nc1S(=O)(=O)c1ccccc1` [compound 8] it is 2.14 nm/s; for `CC(C)CS(=O)(=O)c1oc(-c2cccs2)nc1S(=O)(=O)c1ccc(F)cc1` [compound 9] it is 1.66 nm/s.
Take `CC(C)S(=O)(=O)c1oc(-c2cccs2)nc1S(=O)(=O)c1ccccc1` [compound 10]: the Papp in the series “in vitro” is 4.37 nm/s.
With `COc1ccc(C(Nc2ccccn2)c2c(C)[nH]c3ccccc23)cc1` (stereo not shown) [compound 11], the “Toxicity (%)” value in the series with HEK293T cells is reported as 100%.
On the same count and under the same terms, as for `Cc1ccc(C(Nc2ccccn2)c2c(C)[nH]c3ccccc23)cc1` (stereo not shown) [compound 12], the figure is 90%; as for `COc1cccc(C(Nc2ccccn2)c2c(C)[nH]c3ccccc23)c1` (stereo not shown) [compound 13], 60%; as for `Cc1[nH]c2ccccc2c1C(Nc1ccccn1)c1ccc(F)cc1` (stereo not shown) [compound 16], 100%.
Same read-out and setting: as for `Cc1[nH]c2ccccc2c1C(Nc1ccccn1)c1cccc(Cl)c1` (stereo not shown) [compound 18], the figure is 100%.
For the molecule `Cc1ccc(S(=O)(=O)ON2C(=O)c3ccccc3C2=O)cc1` [compound 20], in “in vitro”, the Papp was 0.0195 nm/s. For the same molecule, the “Toxicity (%)” value with HEK293T cells worked out at 50%.
For `COc1ccc(OC)c(S(=O)(=O)ON2C(=O)c3ccccc3C2=O)c1` [compound 21] the same measures were 0.145 nm/s and 50%.
`CCc1ccc(S(=O)(=O)ON2C(=O)c3ccccc3C2=O)cc1` [compound 22]: the Papp in the series “in vitro” is 0.148 nm/s.
In the case of `Cc1c(C=O)c(C(=O)O)c(C)n1Cc1ccc(Cl)cc1` [compound 23], the Papp in the series “in vitro” was 0.0525 nm/s. Further, the “Toxicity (%)” value in the series on HEK293T cells came to 20%.
In the series “in vitro”, `O=Cc1nc2ccccc2n1Cc1ccc2ccccc2c1` [compound 24] gave an apparent permeability coefficient (Papp) of 5.13 nm/s.
On the same count and under the same terms, as for `O=Cc1nc2ccccc2n1Cc1ccc(Cl)cc1Cl` [compound 25], the figure is 3.02 nm/s.
In turn, `COCC(=O)Oc1c(Sc2ccc(Cl)cc2)c(C)nn1-c1ccccc1` [compound 26] gave an apparent permeability (Papp) in “in vitro” of 0.331 nm/s. Also, in the series on HEK293T cells, the “Toxicity (%)” value came out at 0%.
For `Nc1nc2ccc(S(=O)(=O)N3CCCCC3)cc2s1` [compound 27], the Papp in “in vitro” was 0.525 nm/s.
Regarding `CCCCNC(=O)Cn1sc2nc(C)cc(C)c2c1=O` [compound 28], the apparent permeability coefficient (Papp) in the series “in vitro” was 1.66 nm/s.
The same measure, in the same setting: as for `Cc1cccc(N2COc3ccc4ccccc4c3C2)c1` [compound 29], the figure is 11.2 nm/s.

B1: Vitamin D receptor (protein)
chain: MEAMAASTSLPDPGDFDRNVPRICGVCGDRATGFHFNAMTCEGCKGFFRRSMKRKALFTCPFNGDCRITKDNRRHCQACRLKRCVDIGMMKEFILTDEEVQRKREMILKRKEEEALKDSLRPKLSEEQQRIIAILLDAHHKTYDPTYSDFCQFRPPVRVNDGGGSHPSRPNSRHTPSFSGDSSSSCSDHCITSSDMMDSSSFSNLDLSEEDSDDPSVTLELSQLSMLPHLADLVSYSIQKVIGFAKMIPGFRDLTSEDQIVLLKSSAIEVIMLRSNESFTMDDMSWTCGNQDYKYRVSDVTKAGHSLELIEPLIKFQVGLKKLNLHEEEHVLLMAICIVSPDRPGVQDAALIEAIQDRLSNTLQTYIRCRHPPPGSHLLYAKMIQKLADLRSLNEEHSKQYRCLSFQPECSMKLTPLVLEVFGNEIS
B1: in series [1], binding was put at a Kd of 1.7 µM.

Values taken from article PMC3364162 (Journal of Medicinal Chemistry, 2012).
